Our source for the inhibition values is article PMC9500300, “Development of a novel Bruton’s tyrosine kinase inhibitor that exerts anti-cancer activities potentiates response of chemotherapeutic agents in multiple myeloma stem cell-like cells” (Frontiers in Pharmacology, 2022).

Where a name gives a salt, the structure may show the parent alone.

The test deals with Bruton's tyrosine kinase (BTK) (Homo sapiens, UniProt Q06187). Nature of the test: ADP-Glo in vitro kinase assay with BTK enzyme (Promega). Type of test: biochemical.
Sequence of Bruton's tyrosine kinase (BTK) (Q06187 2-659): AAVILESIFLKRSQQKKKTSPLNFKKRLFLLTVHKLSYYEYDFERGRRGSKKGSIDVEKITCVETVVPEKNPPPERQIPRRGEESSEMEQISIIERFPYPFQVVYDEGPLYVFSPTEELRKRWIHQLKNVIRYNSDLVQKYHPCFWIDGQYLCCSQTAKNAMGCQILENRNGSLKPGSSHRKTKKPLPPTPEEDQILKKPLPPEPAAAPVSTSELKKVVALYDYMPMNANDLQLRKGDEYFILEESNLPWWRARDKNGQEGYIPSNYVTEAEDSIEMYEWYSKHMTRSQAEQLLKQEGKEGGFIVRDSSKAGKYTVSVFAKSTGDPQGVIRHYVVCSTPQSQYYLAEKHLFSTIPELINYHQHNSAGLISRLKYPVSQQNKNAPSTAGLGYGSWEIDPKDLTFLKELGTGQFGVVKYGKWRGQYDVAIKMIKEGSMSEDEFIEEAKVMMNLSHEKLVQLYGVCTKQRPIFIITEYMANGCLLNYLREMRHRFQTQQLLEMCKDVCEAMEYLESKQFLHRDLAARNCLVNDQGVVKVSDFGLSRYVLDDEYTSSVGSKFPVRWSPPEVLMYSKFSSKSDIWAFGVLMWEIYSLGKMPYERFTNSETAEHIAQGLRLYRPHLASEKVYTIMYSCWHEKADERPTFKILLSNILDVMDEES

In the case of `N=C(N)SCc1ccc(CN2C(=O)C(=Cc3ccc(Oc4cccc(Cl)c4Cl)cc3)c3cc([N+](=O)[O-])ccc32)cc1` [compound 6, 4-((3-(4-(2,3-dichlorophenoxy)benzylidene)-5-nitro-2-oxoindolin-1-yl)methyl) benzyl carbamimidothioate hydrobromide], at 1 µM the inhibition was 49.8%.
